In publication PMC6719172, “Inhibition of CpLIP2 Lipase Hydrolytic Activity by Four Flavonols (Galangin, Kaempferol, Quercetin, Myricetin) Compared to Orlistat and Their Binding Mechanisms Studied by Quenching of Fluorescence” (Molecules, 2019):
Converted amounts (≈) assume the structure as drawn.

Legend:
[1] = target: CpLIP2 lipase (Candida parapsilosis, UniProt Q8NIN8); assay: Quenching of CpLIP2 intrinsic tryptophan fluorescence by flavonols (Stern–Volmer, Lehrer, van't Hoff analysis); type: binding; conditions: for KSV (Stern–Volmer quenching constant): CpLIP2 2.5 µM, pH 7.0, flavonol 2.5–25 µM (GAL 2.5–17.5 µM); for Kq (bimolecular quenching constant): Kq = KSV/τ0, τ0 1.59 ns; for KSV (accessible), Stern–Volmer quenching constant of the exposed W residues / fa (fraction of accessible W residues to the quencher): Lehrer equation; for ΔG (free energy change): ΔG = ΔH − TΔS; for Kd: Kd (dissociation constant)
Text: The fluorescence quenching spectra of CpLIP2 lipase submitted to increasing concentrations of GAL, KAE, QUE and MYR are shown in Figure 3. A remarkable quenching of the CpLIP2 fluorescence emission was observed. […] The fluorescence quenching is usually described by the linear Stern–Volmer Equations (2) and (3):(2) F0/F = 1 + Ksv [Q] = 1 + Kqτ0 [Q] (3) Kq=Ksv/τ0 where F0 and F are the intrinsic fluorescence intensities of CpLIP2 lipase (fluorophore) in absence or presence of quencher (flavonol), respectively. Kq is the bimolecular quenching constant, τ0 is the lifetime of the fluorophore in the absence of the quencher, [Q] is the concentration of the quencher, and KSV is the Stern–Volmer quenching constant.
The mechanism of quenching, occurring between CpLIP2 lipase and flavonols, was characterized by determining the values of Kq and the thermodynamic parameters by varying the temperature. […] In both cases, the bimolecular quenching constant Kq can be calculated by the ratio between KSV and τ0, itself determined at 1.59 ns for Human Pancreatic Lipase.
The inaccessible or buried residues are responsible for the remaining fluorescence, which is probably independent of the quencher concentration. […] An up-down curvature towards the x-axis has been shown for the four flavonols (Figure 4), indicating the presence of two populations of fluorophores, part of which would not be accessible. That means that some W residues are buried inside the lipase structure and that other residues are exposed to the solvent. Therefore, data were analyzed through the Lehrer equation, also known as the modified (or non-linear) Stern–Volmer Equation (4):(4) F0/ F0−F = 1/ fa Ksv 1/ [Q] +1/ fa
For static quenching, the equilibrium between free and bound CpLIP2 lipase, when the ligand molecules bind independently to equivalent sites of macromolecules, can be described by the following Equation (5):(5) log10F0−F/F=nlog10[Q]+log10Ka where Ka is the binding constant and n the number of binding sites per CpLIP2 molecule.
The results were determined for all flavonols tested at different temperatures from the plots of log10 F0 − F/F versus log10 [Q] and listed in Table 2. The plots show a linear relationship from which the slope equal to n and intercept on y-axis equal to log10 Ka. For the four flavonols, the Ka values increased when the temperatures increased. In addition, the n values were less than 1.0 in all cases and increased according to the temperature. […] Values of the dissociation constant of complexes were deduced from the Stern–Volmer Equation (6) and (7), for which Kd is expressed as the inverse of fa Ksv product. (6) F0/ F0−F= Kd 1/ [Q] +1 (7) Kd= 1/fa Ksv
Thermodynamic parameters were calculated to determine the type of binding forces that contribute in the CpLIP2 lipase–flavonol interactions. […] Both the enthalpy (ΔH) and entropy changes (ΔS) can be estimated from the following van′t Hoff Equation (8):(8) Ln Ka = − ΔH /RT + ΔS /R
The values of Gibbs binding free energy change (ΔG) are calculated from the following Equation (9):(9) ΔG= ΔH − TΔS
To fill up the volume of 300 µL by well, 190 µL of sodium phosphate buffer solution (75 mM, pH 7.0) was added to each well to obtain final concentration at 50 mM. Then, 100 µL of ethanol absolute–water ultrapure (2:8, v/v) solution was added to obtain a final amount of ethanol […] in the well of 300 µL. […] The final concentration of ethanol during the experiments never exceeded 0.07% (v/v). The last step was to add 10 µL of lipase after to have optimized the final concentration of CpLIP2 equal to 2.5 µM for all our assays, giving the optimal fluorescence intensity for all measurements. The measurement of intrinsic fluorescence started after mechanical shaking for 30 s inside the multi-plate reader. […]

[2] = target: pancreatic lipase (PL); set-up: method as in PMID 23363068; conditions: in vitro assay; cited from earlier work

CpLIP2 lipase, sequence (Q8NIN8 entry or part of it): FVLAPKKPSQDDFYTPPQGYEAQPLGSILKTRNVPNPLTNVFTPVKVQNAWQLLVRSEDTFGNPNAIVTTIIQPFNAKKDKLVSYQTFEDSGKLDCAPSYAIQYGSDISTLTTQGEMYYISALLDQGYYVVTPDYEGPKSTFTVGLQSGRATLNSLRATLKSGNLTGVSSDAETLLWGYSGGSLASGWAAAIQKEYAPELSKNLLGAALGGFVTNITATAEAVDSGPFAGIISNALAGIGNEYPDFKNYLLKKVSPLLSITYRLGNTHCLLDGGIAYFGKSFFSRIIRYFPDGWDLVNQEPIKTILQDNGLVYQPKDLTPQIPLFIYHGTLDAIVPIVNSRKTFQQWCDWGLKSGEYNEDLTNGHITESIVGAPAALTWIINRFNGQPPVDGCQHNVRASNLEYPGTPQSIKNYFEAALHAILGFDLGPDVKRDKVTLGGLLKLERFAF

O=c1c(O)c(-c2ccccc2)oc2cc(O)cc(O)c12 [GAL, galangin]
Ka (association constant) ([1]; 298 K): 323 ± 8 L/mol
n (number of binding sites) ([1]; 298 K): 0.58 ± 0.18
KSV (Stern–Volmer quenching constant) ([1]; 298 K): 2.9 ± 0.1 × 10^4 L·mol^−1
Kq (bimolecular quenching constant) ([1]; 298 K): 1.8e+13 M⁻¹ s⁻¹
KSV (accessible), Stern–Volmer quenching constant of the exposed W residues ([1]; 298 K): 360000 L/mol
fa (fraction of accessible W residues to the quencher) ([1]; 298 K): 0.37
ΔG (free energy change) ([1]; 298 K): -20.2 kcal/mol
Ka (association constant) ([1]; 308 K): 502 ± 10 L/mol
n (number of binding sites) ([1]; 308 K): 0.63 ± 0.21
KSV (Stern–Volmer quenching constant) ([1]; 308 K): 2.4 ± 0.9 × 10^4 L·mol^−1
Kq (bimolecular quenching constant) ([1]; 308 K): 1.5e+13 M⁻¹ s⁻¹
KSV (accessible), Stern–Volmer quenching constant of the exposed W residues ([1]; 308 K): 360000 L/mol
fa (fraction of accessible W residues to the quencher) ([1]; 308 K): 0.34
ΔG (free energy change) ([1]; 308 K): -20.9 kcal/mol
Ka (association constant) ([1]; 318 K): 616 ± 10 L/mol
n (number of binding sites) ([1]; 318 K): 0.66 ± 0.21
KSV (Stern–Volmer quenching constant) ([1]; 318 K): 2.1 ± 0.8 × 10^4 L·mol^−1
Kq (bimolecular quenching constant) ([1]; 318 K): 1.3e+13 M⁻¹ s⁻¹
KSV (accessible), Stern–Volmer quenching constant of the exposed W residues ([1]; 318 K): 290000 L/mol
fa (fraction of accessible W residues to the quencher) ([1]; 318 K): 0.33
ΔG (free energy change) ([1]; 318 K): -21.6 kcal/mol
n (number of binding sites) ([1]; 328 K): 0.66 ± 0.04
KSV (Stern–Volmer quenching constant) ([1]; 328 K): 1.5 ± 0.6 × 10^4 L·mol^−1
Kq (bimolecular quenching constant) ([1]; 328 K): 1e+13 M⁻¹ s⁻¹
KSV (accessible), Stern–Volmer quenching constant of the exposed W residues ([1]; 328 K): 420000 L/mol
fa (fraction of accessible W residues to the quencher) ([1]; 328 K): 0.25
ΔG (free energy change) ([1]; 328 K): -22.3 kcal/mol
Kd ([1]; 298 K): 8 ± 3 µM
Kd ([1]; 308 K): 8 ± 4 µM
Kd ([1]; 318 K): 11 ± 6 µM
Kd ([1]; 328 K): 10 ± 6 µM
order of magnitude of Kq ([1]; all temperatures of Table 1): ~10^13 L mol^−1 s^−1
ΔS (entropy changes) ([1]; van't Hoff plot, 298–328 K): 0.28 kJ·mol^−1·K^−1
IC50 [2]: 48.2 mg/mL (≈ 178 mM)
